# Counter-ions that a name gives are not always drawn.
# How the values were obtained:
# Format in all cases: cell-based
# [1] = tested on: N. meningitidis (5); test: In vitro activity, Mueller-Hinton agar, serial dilution method (Table 1); conditions: Neisseria meningitidis, read-out: Geometric Mean of MIC
# [2] = tested on: B. anthracis (1) S. pyrogenes (5); test: microbe, parasite or virus in culture; conditions: Bacillus anthracis, read-out: Geometric Mean of MIC
# [3] = tested on: Proteus (6); test: In vitro activity, Mueller-Hinton agar, serial dilution method (Table 1); conditions: read-out: Geometric Mean of MIC
# [4] = tested on: D. pneumoniae (5); test: as above; conditions: Streptococcus pneumoniae, read-out: Geometric Mean of MIC
# [5] = tested on: N. gonorrhoeae (5); test: as above; conditions: Neisseria gonorrhoeae, read-out: Geometric Mean of MIC
# [6] = tested on: H. influenzae (7); test: as above; conditions: Haemophilus influenzae, read-out: Geometric Mean of MIC
# [7] = tested on: Shig. (3), Serr. (1) (1), Sal. (2); test: as above; conditions: read-out: Geometric Mean of MIC
# Text: (§1) In vitro Activity Using Mueller-Hinton Agar
# (§2) By the Serial Dilution Method
# [8] = tested on: Kl. pneumoniae (4); test: as above; conditions: Klebsiella pneumoniae, read-out: Geometric Mean of MIC
# Text: as §1, §2
# [9] = tested on: S. aureus (3 strains); test: as above; conditions: Staphylococcus aureus, read-out: Geometric Mean of MIC
# [10] = tested on: S. marcescens; test: MICs in Mueller-Hinton agar (Table 2); conditions: Serratia marcescens, 1 strain, read-out: Geometric Means of MIC's
# Text: (§3) Geometric Means of MIC's Against 3 Strains
# (§4) of S. aureus and 27 Strains of Gram-negative Bacteria
# (§5) (mcg./ml., Mueller-Hinton Agar)
# [11] = tested on: Indole(+) Proteus, Cephalosporin-R; test: MICs in Mueller-Hinton agar (Table 2); conditions: 2 strains, read-out: Geometric Means of MIC's
# Text: as §3, §4, §5
# [12] = tested on: S. aureus; test: MICs in Mueller-Hinton agar (Table 2); conditions: Staphylococcus aureus, 1 strain, read-out: Geometric Means of MIC's
# Text: as §3, §4, §5
# [13] = tested on: E. coli; test: MICs in Mueller-Hinton agar (Table 2); conditions: Escherichia coli, 6 strains, read-out: Geometric Means of MIC's
# Text: as §3, §4, §5
# [14] = tested on: E. cloacae; test: MICs in Mueller-Hinton agar (Table 2); conditions: Enterobacter cloacae, 1 strain, read-out: Geometric Means of MIC's
# Text: as §3, §4, §5
# [15] = tested on: S. aureus, Penicillin-R; test: MICs in Mueller-Hinton agar (Table 2); conditions: Staphylococcus aureus, 2 strains, read-out: Geometric Means of MIC's
# Text: as §3, §4, §5
# [16] = tested on: K. pneumoniae; test: MICs in Mueller-Hinton agar (Table 2); conditions: Klebsiella pneumoniae, 4 strains, read-out: Geometric Means of MIC's
# Text: as §3, §4, §5
# [17] = tested on: E. coli, Cephalosporin-R; test: MICs in Mueller-Hinton agar (Table 2); conditions: Escherichia coli, 1 strain, read-out: Geometric Means of MIC's
# Text: as §3, §4, §5
# [18] = tested on: Shigella, Salmonella; test: MICs in Mueller-Hinton agar (Table 2); conditions: 5 strains, read-out: Geometric Means of MIC's
# Text: as §3, §4, §5
# [19] = tested on: Indole(+) Proteus; test: MICs in Mueller-Hinton agar (Table 2); conditions: 3 strains, read-out: Geometric Means of MIC's
# Text: as §3, §4, §5
# [20] = tested on: Indole (-) Proteus; test: MICs in Mueller-Hinton agar (Table 2); conditions: 2 strains, read-out: Geometric Means of MIC's
# Text: as §3, §4, §5
# [21] = tested on: P. aeruginosa; test: MICs in Mueller-Hinton agar (Table 2); conditions: Pseudomonas aeruginosa, 2 strains, read-out: Geometric Means of MIC's
# Text: as §3, §4, §5
# [22] = tested on: S. viridans (5); test: In vitro activity, Mueller-Hinton agar, serial dilution method (Table 1); conditions: Streptococcus viridans, read-out: Geometric Mean of MIC
# [23] = tested on: S. marcescens; test: MICs against 18 strains of S. marcescens (Table 3); conditions: Serratia marcescens, read-out: Geometric Means of MIC's
# Text: Geometric Means of MIC's Against 18 Strains
# [24] = tested on: E. coli (7); test: In vitro activity, Mueller-Hinton agar, serial dilution method (Table 1); conditions: Escherichia coli, read-out: Geometric Mean of MIC
Compound,MIC [1] [µg/mL],MIC [2] [µg/mL],MIC [3] [µg/mL],MIC [4] [µg/mL],MIC [5] [µg/mL],MIC [6] [µg/mL],MIC [7] [µg/mL],MIC [8] [µg/mL],MIC [9] [µg/mL],MIC [10] [µg/mL],MIC [11] [µg/mL],MIC [13] [µg/mL],MIC [14] [µg/mL],MIC [15] [µg/mL],MIC [16] [µg/mL],MIC [17] [µg/mL],MIC [18] [µg/mL],MIC [19] [µg/mL],MIC [22] [µg/mL],MIC [24] [µg/mL],also measured
"CO/N=C(\C(=O)N[C@@H]1C(=O)N2C(C(=O)O)=C(CSc3ccc4nn(CC(=O)O)c(=O)n4n3)CS[C@H]12)c1ccco1 [BB-S511, 7-[(2Z)-2-Methoxyimino(fur-2-yl)acetamido]-3-(2-carboxymethyl-2,3-dihydro-s-triazolo[4,3-b]pyridazin-3-on-6-ylthiomethyl)-3-cephem-4-carboxylic Acid Disodium Salt]",2.37,0.032,0.021,0.037,1.36,0.64,1.11,0.47,1.97,25,6.3,0.2,3.1,0.6,0.7,6.3,0.3,0.05,0.15,0.58,MIC [12]: 1.6 µg/mL; MIC [20]: 0.1 µg/mL; MIC [21]: > 100 µg/mL; MIC [23]: 5.4 µg/mL
"CO/N=C(\C(=O)N[C@@H]1C(=O)N2C(C(=O)O)=C(CSc3ccc4nn(CCC(=O)O)c(=O)n4n3)CS[C@H]12)c1ccco1 [BB-S526, 7-[(2Z)-2-Methoxyimino(fur-2-yl)acetamido]-3-[2-(2-carboxyethyl)-2,3-dihydro-s-triazolo[4,3-b]pyridazin-3-on-6-ylthiomethyl]-3-cephem-4-carboxylic Acid Sodium Salt]",3.6,0.032,0.061,0.056,1.6,0.71,2.41,0.93,1.6,,,,,,,,,,0.4,0.78,
"NCc1ccccc1CC(=O)N[C@@H]1C(=O)N2C(C(=O)O)=C(CSc3nnnn3CC(=O)O)CS[C@H]12 [BL-S786, 7-[α-(2-aminomethylphenyl)acetamido]-3-[(1-carboxymethyltetrazol-5-lthio)methyl]-3-cephem-4-carboxylic acid, reference compound]",,,,,,,,,,> 100,50.1,0.2,1.6,1.6,0.3,12.5,0.5,0.3,,,MIC [20]: 0.2 µg/mL; MIC [21]: > 100 µg/mL; MIC [23]: 85.9 µg/mL
"CO/N=C(\C(=O)N[C@@H]1C(=O)N2C(C(=O)O)=C(COC(N)=O)CS[C@H]12)c1ccco1 [Cefuroxime, sodium 6R,7R-3-carbamoyloxymethyl-7-(2Z)-2-methoxyimino(fur-2-yl)acetamidoceph-3em-4-carboxylate, reference compound]",1.6,0.025,0.88,0.0125,0.4,1.16,4.06,3.1,1.24,,,,,,,,,,0.1,1.28,

# Source: patent publication US4103085A, “7-(Syn-α-alkoxy-iminofurylacetamido-3-(2-carboxyalkyl-2,3-dihy dro-s-triazolo[4,3-b]pyridazin-3-on-6-ylthiomethyl)-3-cephem-4-carboxylic acids” (Bristol-Myers Company, priority 1977, dated 1978)
